Data as given in PubChem BioAssay (NCI).
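Cultured in 96-well plates, cells were exposed to test compound for 48 hours across five concentrations. TGI: concentration producing complete growth inhibition.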 Where a SMILES comes first, the peptide text is derived from it.

What was measured:
Test in all cases: growth of human tumour cells (NCI), 48 h
[1] = system: 786-0 renal
[2] = system: CAKI-1 renal
[3] = system: HCT-15 colon
[4] = system: HOP-92 NSCLC
[5] = system: HT29 colon
[6] = system: IGROV1 ovarian
[7] = system: K-562 leukemia
[8] = system: LXFL 529 NSCLC
[9] = system: OVCAR-4 ovarian
[10] = system: OVCAR-5 ovarian
[11] = system: RPMI-8226 leukemia
[12] = system: RXF 393 renal
[13] = system: SF-268 CNS
[14] = system: SNB-19 CNS
[15] = system: SR leukemia
[16] = system: SW-620 colon
[17] = system: UACC-62 melanoma
[18] = system: KM12 colon
[19] = system: MCF7 breast
[20] = system: MDA-MB-435

CSc1nc2nccnc2c(=O)[nH]1
TGI [1]: > 100 µM | TGI [2]: > 100 µM | TGI [3]: > 100 µM | TGI [4]: > 100 µM | TGI [5]: > 100 µM | TGI [6]: > 100 µM | TGI [7]: > 100 µM | TGI [8]: > 100 µM | TGI [9]: > 100 µM | TGI [10]: > 100 µM | TGI [11]: > 100 µM | TGI [12]: > 100 µM | TGI [13]: > 100 µM | TGI [14]: > 100 µM | TGI [15]: > 100 µM | TGI [16]: > 100 µM | TGI [17]: > 100 µM

CC(=O)NC(CS)C(=O)NC(CO)C(=O)NC(CO)C(=O)NC(Cc1c[nH]c2ccccc12)C(=O)N1CCCC1C(=O)NC(CO)C(=O)NC(Cc1c[nH]c2ccccc12)C(=O)NC(Cc1c[nH]cn1)C(=O)NC(CO)C(=O)NC(Cc1c[nH]c2ccccc12)C(=O)NCC(=O)NCC(=O)NC(C)C(=O)NC(CCC(N)=O)C(=O)NC(CCCCN)C(=O)NC(C)C(=O)NC(CCCNC(=N)N)C(=O)NC(CCCCN)C(N)=O (stereo not given) (Ac-CSSWPSWHSWGGAQKARK-NH2; configuration not given here)
TGI [1]: 19.5 µM | TGI [2]: 33.6 µM | TGI [3]: > 50 µM | TGI [4]: > 50 µM | TGI [5]: > 50 µM | TGI [6]: > 50 µM | TGI [7]: 28.5 µM | TGI [18]: 32.1 µM | TGI [19]: > 50 µM | TGI [20]: > 50 µM | TGI [9]: > 50 µM | TGI [10]: > 50 µM | TGI [11]: > 50 µM | TGI [12]: 24.9 µM | TGI [13]: 49.6 µM | TGI [14]: > 50 µM | TGI [15]: 43.4 µM | TGI [16]: > 50 µM | TGI [17]: 24 µM

Cc1ccc2c(ccc3ncc(CNc4ccc(NS(C)(=O)=O)cc4)c32)[nH]1
TGI [1]: 39.4 µM | TGI [2]: 58 µM | TGI [3]: > 100 µM | TGI [4]: 90.3 µM | TGI [5]: 93.6 µM | TGI [6]: > 100 µM | TGI [7]: 46.3 µM | TGI [18]: 36.6 µM | TGI [19]: 44.5 µM | TGI [20]: 31.5 µM | TGI [9]: 58.9 µM | TGI [10]: 53.8 µM | TGI [11]: 41.3 µM | TGI [12]: 21.7 µM | TGI [13]: 52.5 µM | TGI [14]: > 100 µM | TGI [15]: 50.8 µM | TGI [16]: > 100 µM | TGI [17]: 34.2 µM

OC(c1cc2ccccc2[nH]1)C(O)(c1cc2ccccc2[nH]1)c1cc2ccccc2[nH]1 (stereo not given)
TGI [1]: 20.8 µM | TGI [2]: 51.9 µM | TGI [3]: 33 µM | TGI [4]: 50.1 µM | TGI [5]: 36.2 µM | TGI [6]: 47.9 µM | TGI [7]: > 245 µM | TGI [18]: > 245 µM | TGI [8]: 40.2 µM | TGI [10]: 102 µM | TGI [11]: > 245 µM | TGI [12]: 29.1 µM | TGI [13]: 85.2 µM | TGI [14]: > 245 µM | TGI [15]: > 245 µM | TGI [16]: 43.1 µM | TGI [17]: 23.2 µM

NC1=Nc2ccccc2Sc2nccn21
TGI [1]: 57.9 µM | TGI [2]: 64.9 µM | TGI [3]: 59.7 µM | TGI [4]: 40.8 µM | TGI [5]: 65.1 µM | TGI [6]: > 100 µM | TGI [7]: 50 µM | TGI [18]: 69.9 µM | TGI [19]: > 100 µM | TGI [20]: 59 µM | TGI [9]: > 100 µM | TGI [10]: > 100 µM | TGI [11]: 44.5 µM | TGI [12]: 56.5 µM | TGI [13]: 88.4 µM | TGI [14]: > 100 µM | TGI [15]: 80.8 µM | TGI [16]: > 100 µM | TGI [17]: > 100 µM

Cc1nc(-c2cccnc2)sc1C(=O)CC(=O)C(=O)Nc1cccc(NC(=O)C(=O)CC(=O)c2sc(-c3cccnc3)nc2C)n1
TGI [1]: > 100 µM | TGI [2]: > 100 µM | TGI [3]: > 100 µM | TGI [4]: > 100 µM | TGI [5]: > 100 µM | TGI [6]: > 100 µM | TGI [7]: > 100 µM | TGI [18]: > 100 µM | TGI [19]: > 100 µM | TGI [20]: > 100 µM | TGI [9]: > 100 µM | TGI [10]: > 100 µM | TGI [11]: > 100 µM | TGI [12]: > 100 µM | TGI [13]: > 100 µM | TGI [14]: > 100 µM | TGI [15]: > 100 µM | TGI [16]: > 100 µM | TGI [17]: > 100 µM

CSc1c(C(N)=S)c(N)nn1-c1ccccc1
TGI [1]: > 100 µM | TGI [2]: > 100 µM | TGI [3]: > 100 µM | TGI [4]: > 100 µM | TGI [5]: > 100 µM | TGI [6]: > 100 µM | TGI [7]: > 100 µM | TGI [18]: > 100 µM | TGI [19]: > 100 µM | TGI [20]: > 100 µM | TGI [9]: > 100 µM | TGI [10]: > 100 µM | TGI [11]: > 100 µM | TGI [12]: > 100 µM | TGI [13]: > 100 µM | TGI [14]: > 100 µM | TGI [15]: > 100 µM | TGI [16]: > 100 µM | TGI [17]: > 100 µM

COC(=O)CC(C(C(=O)OCc1ccccc1)C(C)O)N1C(=O)OCC1c1ccccc1 (stereo not given)
TGI [1]: > 100 µM | TGI [3]: > 100 µM | TGI [5]: > 100 µM | TGI [6]: > 100 µM | TGI [7]: > 100 µM | TGI [8]: > 100 µM | TGI [9]: > 100 µM | TGI [11]: > 100 µM | TGI [12]: > 100 µM | TGI [13]: > 100 µM | TGI [14]: > 100 µM | TGI [15]: > 100 µM | TGI [16]: > 100 µM | TGI [17]: > 100 µM

Cc1cn(CCCCOC(=O)NC(CCCN=C(N)N)C(=O)O)c(=O)[nH]c1=O (stereo not given)
TGI [1]: > 100 µM | TGI [2]: > 100 µM | TGI [3]: > 100 µM | TGI [4]: > 100 µM | TGI [5]: > 100 µM | TGI [6]: > 100 µM | TGI [7]: > 100 µM | TGI [18]: > 100 µM | TGI [19]: > 100 µM | TGI [20]: > 100 µM | TGI [9]: > 100 µM | TGI [10]: > 100 µM | TGI [11]: > 100 µM | TGI [12]: > 100 µM | TGI [13]: > 100 µM | TGI [14]: > 100 µM | TGI [15]: > 100 µM | TGI [16]: > 100 µM | TGI [17]: > 100 µM

O=S(=O)(O)c1ccc(N=Nc2ccc(N=Nc3c(O)ccc4ccc(S(=O)(=O)O)cc34)cc2)cc1
TGI [1]: > 100 µM | TGI [2]: > 100 µM | TGI [3]: > 100 µM | TGI [4]: > 100 µM | TGI [5]: > 100 µM | TGI [6]: > 100 µM | TGI [7]: > 100 µM | TGI [18]: > 100 µM | TGI [19]: > 100 µM | TGI [20]: > 100 µM | TGI [9]: > 100 µM | TGI [10]: > 100 µM | TGI [11]: > 100 µM | TGI [12]: > 100 µM | TGI [13]: > 100 µM | TGI [14]: > 100 µM | TGI [15]: > 100 µM | TGI [16]: > 100 µM | TGI [17]: > 100 µM

CCN(CC)CCOCCOCC1(c2ccc(Cl)c(Cl)c2)CCCCC1
TGI [1]: 9.07 µM | TGI [2]: 22.9 µM | TGI [3]: 15.3 µM | TGI [4]: 17.7 µM | TGI [5]: 7.53 µM | TGI [6]: 23.8 µM | TGI [7]: 12.7 µM | TGI [18]: 17.3 µM | TGI [19]: 20.3 µM | TGI [20]: 13.6 µM | TGI [9]: 26.2 µM | TGI [10]: 24 µM | TGI [11]: 6.45 µM | TGI [12]: 17.6 µM | TGI [13]: 25.3 µM | TGI [14]: 26.4 µM | TGI [15]: 26.8 µM | TGI [16]: 21.9 µM | TGI [17]: 22.1 µM
